Columns and labels:
Assay type in all cases: cell-based
[1] = target: T1, pERK1/2 (Thr202/Tyr204), NCI-1H441 (KRAS G12V) (Homo sapiens, UniProt P01116, G12V); assay: Assay of intracellular pERK1/2 (Thr202/Tyr204) phosphorylation in NCI-H441 cells (KRAS G12V); conditions: pERK1/2, 2 days, read-out: NCI-H441 (KRAS G12V) IC50
T1 construct: pERK1/2 HTRF read-out
Method in brief: (§1)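 Cells (10000-12000/well) exposed to 3-fold compound dilutions for 2 days at 37 °C, then lysed; pERK1/2 (Thr202/Tyr204) measured by HTRF with d2 and cryptate antibodies, 665/615 nm ratio.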

[2] = target: T2, pERK1/2 (Thr202/Tyr204), PANC-1 (KRAS G121D) (Homo sapiens, UniProt P01116, G12D); assay: Assay of intracellular pERK1/2 (Thr202/Tyr204) phosphorylation in PANC-1 cells (KRAS G12D); conditions: pERK1/2, 2 days, read-out: PANC-1 (KRAS G12D) IC50
T2 construct: pERK1/2 HTRF read-out
T2 sequence (P01116 1-188 isoform P01116-2 G12D): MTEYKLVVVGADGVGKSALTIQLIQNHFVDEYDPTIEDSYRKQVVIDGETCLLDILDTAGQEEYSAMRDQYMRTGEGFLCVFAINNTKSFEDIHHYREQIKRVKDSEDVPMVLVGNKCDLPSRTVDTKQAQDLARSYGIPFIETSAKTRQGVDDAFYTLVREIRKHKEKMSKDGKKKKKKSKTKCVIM
Method in brief: as §1

[3] = target: T3, pERK1/2 (Thr202/Tyr204), NCI-1H358 (KRAS G12C) (Homo sapiens, UniProt P01116, G12C); assay: Assay of intracellular pERK1/2 (Thr202/Tyr204) phosphorylation in NCI-H358 cells (KRAS G12C); conditions: pERK1/2, 2 days, read-out: NCI-H358 (KRAS G12C) IC50
T3 construct: pERK1/2 HTRF read-out
T3 sequence (P01116 1-188 isoform P01116-2 G12C): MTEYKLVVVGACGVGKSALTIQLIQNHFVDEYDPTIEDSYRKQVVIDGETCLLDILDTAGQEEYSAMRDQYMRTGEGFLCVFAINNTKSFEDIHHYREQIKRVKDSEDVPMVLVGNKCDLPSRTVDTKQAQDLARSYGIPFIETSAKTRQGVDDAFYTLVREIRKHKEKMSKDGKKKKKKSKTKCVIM
Method in brief: as §1

T1 sequence (P01116 1-188 isoform P01116-2 G12V): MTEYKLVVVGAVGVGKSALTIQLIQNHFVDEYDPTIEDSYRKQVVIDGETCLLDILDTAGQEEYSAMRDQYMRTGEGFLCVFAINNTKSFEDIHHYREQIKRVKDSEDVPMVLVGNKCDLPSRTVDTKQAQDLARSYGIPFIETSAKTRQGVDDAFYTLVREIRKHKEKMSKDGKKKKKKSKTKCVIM

Compound	IC50 [1] [nM]	IC50 [2] [nM]	IC50 [3] [nM]
Cc1cc2[nH]ncc2c(-c2nc3c4c(nc(OC[C@@]56CCCN5C[C@H](F)C6)nc4c2F)N(C(C)c2cc(Cl)cnc2N)[C@@H](C)CO3)c1C(F)(F)F (stereo partly drawn) [Compound 334, (*)5-Chloro-3-(1-((9S)-4-fluoro-2-(((2R,7aS)-2-fluorotetrahydro-1H-pyrrolizin-7a(5H)-yl)methoxy)-9-methyl-5-(6-methyl-5-(trifluoromethyl)-1H-indazol-4-yl)-8,9-dihydro-1OH-7-oxa-1,3,6,10-tetraazacyclohepta[de]naphthalen-10-yl)ethyl)pyridin-2-amine]	0.5	0.6	0.3
CC(c1cccnc1N)N1c2nc(OC[C@@]34CCCN3C[C@H](F)C4)nc3c(F)c(-c4cccc5nc(N)nn45)nc(c23)OC[C@@H]1C (stereo partly drawn) [Compound 335]	> 100	> 100	> 100
CC(c1cccnc1N)N1c2nc(OC[C@@]34CCCN3C[C@H](F)C4)nc3c(F)c(-n4nc(N)c5ccccc54)nc(c23)OC[C@@H]1C (stereo partly drawn) [Compound 336, (*)1-((9S)-10-(1-(2-aminopyridin-3-yl)ethyl)-4-fluoro-2-(((2R,7aS)-2-fluorotetrahydro-1H-pyrrolizin-7a(5H)-yl)methoxy)-9-methyl-9,10-dihydro-8H-7-oxa-1,3,6,10-tetraazacyclohepta[de]naphthalen-5-yl)-1H-indazol-3-amine]	> 100	> 100	> 100
Cc1cc(F)c2sc(N)nc2c1-c1nc2c3c(nc(OC[C@@]45CCCN4C[C@H](F)C5)nc3c1F)N(C(C)c1cccnc1N)[C@@H](C)CO2 (stereo partly drawn) [Compound 340]	4	39	2
Cc1cc2[nH]ncc2c(-c2nc3c4c(nc(OC[C@@]56CCCN5C[C@H](F)C6)nc4c2F)N([C@H](C)c2cc(F)cnc2N)[C@@H](C)CO3)c1C(F)(F)F [Compound 342]	0.4	0.3	0.2
CC(c1cccnc1N)N1c2nc(OC[C@@]34CCCN3C[C@H](F)C4)nc3c(F)c(-c4c5c(cc6[nH]ncc46)CCC5)nc(c23)OC[C@@H]1C (stereo partly drawn) [Compound 343]	0.6	2	0.2
CC(c1cccnc1N)N1c2nc(OC[C@@]34CCCN3C[C@H](F)C4)nc3c(F)c(-c4c5ccccc5cc5[nH]ncc45)nc(c23)OC[C@@H]1C (stereo partly drawn) [Compound 348]	0.5	0.5	0.2
CC(c1cccnc1N)N1c2nc(OC[C@@]34CCCN3C[C@H](F)C4)nc3c(F)c(-c4cc(=O)[nH]c5ccccc45)nc(c23)OC[C@@H]1C (stereo partly drawn) [Compound 360]	> 100	> 100	> 100
CC(c1cccnc1N)N1c2nc(OC[C@@]34CCCN3C[C@H](F)C4)nc3c(F)c(-c4c5cn[nH]c5cc5cccc(F)c45)nc(c23)OC[C@@H]1C (stereo partly drawn) [Compound 362]	0.3	0.4	0.2
Cc1c(F)c(N)cc(-c2nc3c4c(nc(OC[C@@]56CCCN5C[C@H](F)C6)nc4c2F)N([C@H](C)c2cc(F)cnc2N)[C@@H](C)CO3)c1C(F)(F)F [Compound 365]	1	1	0.2
Cc1c(F)c(N)cc(-c2nc3c4c(nc(OC[C@@]56CCCN5C[C@H](F)C6)nc4c2F)N([C@@H](C)c2cc(F)cnc2N)[C@@H](C)CO3)c1C(F)(F)F [Compound 366]	> 100	> 100	> 100
CC(c1cc(F)cnc1N)N1c2nc(OC[C@@]34CCCN3C[C@H](F)C4)nc3c(F)c(-c4c5cn[nH]c5cc5cccc(F)c45)nc(c23)OC[C@@H]1C (stereo partly drawn) [Compound 367]	0.4	1	0.2
CC(c1cccnc1N)N1c2nc(OC[C@@]34CCCN3C[C@H](F)C4)nc3c(F)c(-c4c5cn[nH]c5cc5ccc(F)c(F)c45)nc(c23)OC[C@@H]1C (stereo partly drawn) [Compound 369]	0.2	0.4	0.2
CC(c1cccnc1N)N1c2nc(OC[C@@]34CCCN3C[C@H](F)C4)nc3c(F)c(-c4c5c(cc6[nH]ncc46)CCC5(F)F)nc(c23)OC[C@@H]1C (stereo partly drawn) [Compound 370]	3	2	1
CC(c1cccnc1N)N1c2nc(OC[C@@]34CCCN3C[C@H](F)C4)nc3c(F)c(-c4cc(F)cc5c4C(F)(F)CC5)nc(c23)OC[C@@H]1C (stereo partly drawn) [Compound 371]	11	57	3
Cc1cc2[nH]ncc2c(-c2nc3c4c(nc(OC[C@@]56CCCN5C[C@H](F)C6)nc4c2F)N(C(C)c2cccnc2N)CCO3)c1C(F)(F)F (stereo partly drawn) [Compound 372]	0.8	4	0.3
CC(c1cccnc1N)N1c2nc(OC[C@@]34CCCN3C[C@H](F)C4)nc3c(F)c(-c4c5c(cc6[nH]ncc46)CC=C5F)nc(c23)OC[C@@H]1C (stereo partly drawn) [Compound 374]	2	1	0.6
CC(c1cccnc1N)N1c2nc(OC[C@@]34CCCN3C[C@H](F)C4)nc3c(F)c(-c4c5cccnc5cc5[nH]ncc45)nc(c23)OC[C@@H]1C (stereo partly drawn) [Compound 375]	94	> 100	8
CC(c1cccnc1N)N1c2nc(OC[C@@]34CCCN3C[C@H](F)C4)nc3c(F)c(-c4c5c(cc6[nH]ncc46)CCC(F)(F)C5)nc(c23)OC[C@@H]1C (stereo partly drawn) [Compound 376]	1	4	0.4
Cc1cc2[nH]ncc2c(-c2nc3c4c(nc(OC[C@@]56CCCN5C[C@H](F)C6)nc4c2F)N(C(C)c2cccnc2N)[C@H]2CCOC[C@@H]2O3)c1C(F)(F)F (stereo partly drawn) [Compound 388]	> 100	> 100	> 100
Cc1cc2[nH]ncc2c(-c2nc3c4c(nc(OC[C@@]56CCCN5C[C@H](F)C6)nc4c2F)N(C(C)c2cccnc2N)[C@H]2CCC[C@H]2O3)c1C(F)(F)F (stereo partly drawn) [Compound 389]	> 100	> 100	60
Cc1cc2[nH]ncc2c(-c2nc3c4c(nc(OC[C@@]56CCCN5C[C@H](F)C6)nc4c2F)N([C@H](C)c2cccnc2N)[C@@H](C2CC2)CO3)c1C(F)(F)F [Compound 390]	31	> 100	11

The next lines start with the values.

IC50 [1] [nM]	IC50 [2] [nM]	IC50 [3] [nM]	Compound
> 100	> 100	> 100	CC(c1cccnc1N)N1c2nc(OC[C@@]34CCCN3C[C@H](F)C4)nc3c(F)c(-c4c(C(F)(F)F)ccc5ncccc45)nc(c23)OC[C@@H]1C (stereo partly drawn) [Compound 337]
0.3	0.3	0.2	Cc1c(C(F)(F)F)c(-c2nc3c4c(nc(OC[C@@]56CCCN5C[C@H](F)C6)nc4c2F)N(C(C)c2cccnc2N)[C@@H](C)CO3)c2cn[nH]c2c1F (stereo partly drawn) [Compound 363]
> 100	> 100	> 100	Cc1cc2[nH]ncc2c(-c2nc3c4c(nc(OC[C@@]56CCCN5C[C@H](F)C6)nc4c2F)N([C@@H](C)c2cc(F)cnc2N)[C@@H](C)CO3)c1C(F)(F)F [Compound 364]
0.3	0.6	0.3	Cc1c(C(F)(F)F)c(-c2nc3c4c(nc(OC[C@@]56CCCN5C[C@H](F)C6)nc4c2F)N(C(C)c2cc(F)cnc2N)[C@@H](C)CO3)c2cn[nH]c2c1F (stereo partly drawn) [Compound 368]
5	2	2	Cc1cc2[nH]nc(C)c2c(-c2nc3c4c(nc(OC[C@@]56CCCN5C[C@H](F)C6)nc4c2F)N(C(C)c2cccnc2N)[C@@H](C)CO3)c1C(F)(F)F (stereo partly drawn) [Compound 377]
0.6	0.2	0.2	Cc1cc2[nH]nc(C)c2c(-c2nc3c4c(nc(OC[C@@]56CCCN5C[C@H](F)C6)nc4c2F)N(C(C)c2cccnc2N)[C@@H](C)CO3)c1C(F)(F)F (stereo partly drawn) [Compound 378]
0.3	0.1	0.2	Cc1c(C(F)(F)F)c(-c2nc3c4c(nc(OC[C@@]56CCCN5C[C@H](F)C6)nc4c2F)N(C(C)c2cccnc2N)[C@@H](C)CO3)c2c(C)n[nH]c2c1F (stereo partly drawn) [Compound 379]
2	1	1	Cc1c(C(F)(F)F)c(-c2nc3c4c(nc(OC[C@@]56CCCN5C[C@H](F)C6)nc4c2F)N(C(C)c2cccnc2N)[C@@H](C)CO3)c2c(C)n[nH]c2c1F (stereo partly drawn) [Compound 380]
0.4	0.2	0.2	Cc1c(C(F)(F)F)c(-c2nc3c4c(nc(OC[C@@]56CCCN5C[C@H](F)C6)nc4c2F)N(C(C)c2cccnc2N)[C@@H](C)CO3)c2c(Cl)n[nH]c2c1F (stereo partly drawn) [Compound 381]
0.4	0.4	0.5	Cc1c(C(F)(F)F)c(-c2cc3nc(OC[C@@]45CCCN4C[C@H](F)C5)nc4c3c(n2)OC[C@H](C)N4C(C)c2cccnc2N)c2c(C)n[nH]c2c1F (stereo partly drawn) [Compound 383]
2	0.4	0.7	Cc1cc2[nH]nc(C)c2c(-c2cc3nc(OC[C@@]45CCCN4C[C@H](F)C5)nc4c3c(n2)OC[C@H](C)N4C(C)c2cccnc2N)c1C(F)(F)F (stereo partly drawn) [Compound 385]
0.7	6	0.4	CC(c1cccnc1N)N1c2nc(OC[C@@]34CCCN3C[C@H](F)C4)nc3cc(-c4c5ccccc5cc5[nH]ncc45)nc(c23)OC[C@@H]1C (stereo partly drawn) [Compound 386]
5	17	2	CC[C@H]1COc2nc(-c3c(C(F)(F)F)c(C)cc4[nH]ncc34)c(F)c3nc(OC[C@@]45CCCN4C[C@H](F)C5)nc(c23)N1C(C)c1cccnc1N (stereo partly drawn) [Compound 387]
